From US9107914B2, “Beta-carbolines for use in the treatment of hearing loss and vertigo” (AudioCure Pharma GmbH, priority 2009, dated 2015)

B1: GDNF: Glial cell line derived neurotrophic factor (protein, UniProt P39905 78-211, looked up)
Glial cell line-derived …: SPDKQMAVLPRRERNRQAAAANPENSRGKGRRGQRGKNRGCVLTAIHLNVTDLGLGYETKEELIFRYCSGSCDAAETTYDKILKNLSRNRRLVSDKVGQACCRPIAFDDDLSFLDDNLVYHILRKHSAKRCGCI
B2: BDNF: brain-derived neurotrophic factor (protein, UniProt P23560 19-247, looked up)
Neurotrophic factor BDNF …: APMKEANIRGQGGLAYPGVRTHGTLESVNGPKAGSRGLTSLADTFEHVIEELLDEDQKVRPNEENNKDADLYTSRVMLSSQVPLEPPLLFLLEEYKNYLDAANMSMRVRRHSDPARRGELSVCDSISEWVTAADKKTAVDMSGGTVTVLEKVPVSKGQLKQYFYETKCNPMGYTKEGCRGIDKRHWNSQCRTTQSYVRALTMDSKKRIGWRFIRIDTSCVCTLTIKRGR

Columns and labels:
[1] = test system: human SH-SY5Y neuroblastoma cells; test: Differentiation model / neurite length in human neuroblastoma cells; assay type: cell-based; conditions: 14 days; for differentiation / neurite length in comparison to 9-methyl-β-carboline: SH-SY5Y cells; for neurite length: vs control group, P<0.001; as to differentiation / neurite length in comparison to 9-methyl-β-carboline: key: +: marginally better than 9-methyl-β-carboline; ±: equal to 9-methyl-β-carboline; −: marginally worse than 9-methyl-β-carboline
From the text: Human neuroblastoma cells were utilised for this model. These are permanent cells, which are present as an indifferent type in culture. They can be activated to differentiate, i.e. transformation into neuronal cells, by addition of specific substances such as retinoic acid, […] (BDNF) or activator of the enzyme, protein kinase C to the culture medium. We used this cell system to analyse whether beta-carbolines can transform the indifferent cells into the neuronal type. Criteria were: less proliferation (less cells per field of view); smaller cell bodies (transformation from the indifferent type to the neuronal type); cytodendrites (neuritis), which provide connections to neighbouring cells or clusters of neighbouring cells.
Human SH-SY5Y neuroblastoma cells were incubated in culture for 14 days with solvent (Ko) or test substance. A shift of the graph to the right side for a test substance, pointed to an increase of neurite length, when compared to the graph for the control substance. Statistical differences between the treated groups were calculated with the Tukey's Multiple Comparison-Test.
Shown are the cumulative frequency distributions of neurite lengths, determined in at least 20 randomly selected visual fields (each 640.000 μm^2) in three independent experiments. A steep rise pointed to a predominance of short neuritis, wherein for example in control cells, a less steep rise signified a greater number of longer neurites. The horizontal maximum indicated the maximal neurite length of the respective treatment group. […] The effects are dose- and substance-dependent: 1-methyl-β-carboline <6-methoxy-9-methyl-β-carboline <9-methyl-β-carboline <9-fluorethyl-β-carboline).
The effects of the other inventive β-carbolines (compounds A-L and VI-XX) on neurite length were determined, as described above, in human SH-SY5Y neuroblastoma cells after 14 days.

inner ear of guinea pigs = test: Prophylaxis of hearing damages in an animal model, gentamicin and etacrynic acid (Example 30); assay type: in vivo; conditions: infusion to the round window recess, gentamicin and etacrynic acid i.v.
Experimental: A solution containing β-carboline was infused continuously into the recess in front of the membrane of the round window of guinea pigs by a osmotic mini-pump for three days. The following β-carbolines were tested individually in this experiment: 9-methyl-β-carboline, compounds XI, XII, XVIII, XIX as well as C to L.
Then, a standard dose of gentamicin and etacrynic acid was injected intravenously into guinea pigs. Gentamicin and etacrynic acid damage the inner ear. Typically, they are used as toxins to induce deafness in such studies. The infusion was continued for further two days. Then, the electrophysiological activity of the nerve cells of the brain stem, which transmit the impulses of the inner ear, was deduced after acoustic irradiation of the ear with […]. The non-β-carboline-treated ear served as intraindividual control (Prieskorn D M, Miller J M. Technical report: chronic and acute intracochlear infusion in rodents. Hear Res, 2000; 140(1-2): 212-215). Moreover, animals were infused with 9-Me-BC only but not with gentamicin as a further control.
The measured electrophysiological activity of the nerve cells of the acoustic nerve (hearing threshold) served as a measure of the degree of therapeutic effect of the used β-carbolines on the inner ear. As can be learned from Table 3, the used β-carbolines show the increase in electrophysiological activity of the nerve cells of the acoustic nerve. It can be concluded from this that β-carbolines are useful for the treatment of hearing damages, vertigo, and vestibular disorders.

[2] = test system: BDNF, GDNF, NGF and NPY in human SH-SY5Y neuroblastoma cells; test: Gene expression of growth factors by reverse transcriptase-PCR (Table 2 summary); assay type: cell-based; conditions: after 2 and 14 days; also: key: +: marginally better than 9-methyl-β-carboline; ±: equal to 9-methyl-β-carboline; −: marginally worse than 9-methyl-β-carboline
Experimental: (§1) Next, it was investigated, whether the substances could induce the formation of nerve growth factors in human SH-SY5Y neuroblastoma cell. After 2 and 14 days the cells were harvested and the expression of the target gene and the house keeping gene was determined via reverse transcriptase-PCR.
The effects of the other inventive β-carbolines (compounds A-L and VI-XX) on the gene expression of BDNF, GDNF, NGF and NPY were determined, as described above, in human SH-SY5Y neuroblastoma cells after 2 and 14 days.

[3] = test system: BDNF (brain-derived neurotrophic factor) in human SH-SY5Y cells; test: Relative gene expression of BDNF (FIG. 4A); assay type: cell-based; conditions: SH-SY5Y cells
Experimental: as §1

[4] = test system: transcription factor CREB in SH-SY5Y cells; test: Dual luciferase method for intracellular cascades (FIG. 5); assay type: cell-based, human; conditions: dose-dependent activating effect, 48 h incubation, three independent experiments
From the text: The effects of β-carbolines on several intracellular cascades were investigated. Of them it is known, that at their respective ends, several transcription factors are formed in the cell nucleus, that in turn activate the transcription of a group of further genes. The dual luciferase method was used. One luciferase served as transfection control, whereas the second is coupled to the appropriate specific binding sequence of the DNA.

[5] = test system: cells of the spiral ganglion of the inner ear; conditions: 48 hours of culture; cited from earlier work

| Molecule | differentiation / neurite length in comparison to 9-methyl-β-carboline [1] | effect on the inner ear (electrophysiological activity, hearing threshold) in comparison to 9-methyl-β-carboline (inner ear of guinea pigs) | gene expression of BDNF, GDNF, NGF and NPY in comparison to 9-methyl-β-carboline [2] | neurite length ([1]; 110 μM) | neurite length ([1]; 50 μM) | BDNF transcription [3] | formation of the transcription factor CREB relative to the level in control cells [4] | survival of cells of the spiral ganglion [5] |
| --- | --- | --- | --- | --- | --- | --- | --- | --- |
| COc1nccc2c3cc(Cl)ccc3n(C)c12 [compound (XIV)] | − | − | − |  |  |  |  |  |
| c1ccc(Cn2c3ccccc3c3ccncc32)cc1 [compound I] | − | − | − |  |  |  |  |  |
| Cc1ccc2c(c1)c1ccncc1n2C [compound (XVII)] | ± | − | ± |  |  |  |  |  |
| CCCCCCn1c2ccccc2c2ccncc21 [compound B] | − | − | − |  |  |  |  |  |
| C=CCn1c2ccccc2c2ccncc21 [compound (XX)] | − | ± | ± |  |  |  |  |  |
| C#CCn1c2ccccc2c2ccncc21 [compound H] | + | + | ± |  |  |  |  |  |
| CCCCCCCCCCCCCCn1c2ccccc2c2ccncc21 [compound C] | ± | + | ± |  |  |  |  |  |
| Cn1c2ccc(OC(F)(F)F)cc2c2ccncc21 [compound (XII)] | + | + | + |  |  |  |  |  |
| CC(C)C(C)Cn1c2ccccc2c2ccncc21 (centres unmarked) [compound K] | ± | ± | − |  |  |  |  |  |
| Cc1ccc2c(c1)c1ccnc(C(C)C)c1n2C [compound (XVI)] | − | − | − |  |  |  |  |  |
| C=CCn1c2ccccc2c2ccncc21 [compound D] | + | − | + |  |  |  |  |  |
| CN(C)CCn1c2ccccc2c2ccncc21 [compound L] | + | + | ± |  |  |  |  |  |
| CC(C)Cn1c2ccccc2c2ccncc21 [compound E] | + | − | ± |  |  |  |  |  |
| Cc1nccc2c1[nH]c1ccccc12 [harman, 1-methyl-β-carboline, reference compound] | − | − | − | increase in neurite length |  |  |  |  |
| COCCn1c2ccccc2c2ccncc21 [compound G] | ± | + | ± |  |  |  |  |  |
| COC(=O)CCn1c2ccccc2c2ccncc21 [compound J] | ± | ± | − |  |  |  |  |  |
| C/C=C/C(C)=C\n1c2ccccc2c2ccnc(Cl)c21 [compound (IX)] | − | − | − |  |  |  |  |  |
| CCn1c2ccccc2c2ccncc21 [compound F] | ± | ± | ± |  |  |  |  |  |
| COc1ccc2c(c1)c1ccncc1n2C1CC1 [compound (XI)] | + | ± | ± |  |  |  |  |  |
| COc1ccc2c(c1)c1ccncc1n2C [9-Me-6-MeO—BC (XVIII), 6-methoxy-9-methyl-9H-β-carboline] | + | ± |  |  | increase in neurite length | enormous, dose-dependent increase | up to ten times |  |
| COc1ccc2c(c1)c1ccncc1n2C(C)C [compound (VII)] | − | − | ± |  |  |  |  |  |
| CCCn1c2ccccc2c2ccncc21 [compound A] | − | − | − |  |  |  |  |  |
| CN(C)c1ccc2c(c1)c1ccncc1n2C [compound (XIII)] | ± | ± | ± |  |  |  |  |  |
| B1 |  |  |  |  |  |  |  | neuroprotective properties |
| B2 |  |  |  |  |  |  |  | neuroprotective properties |
